Reference: patent US20030113901A1, “Cell production” (priority 2000, published 2003)

Key:
[1] = tested on: in vitro-derived neurectoderm (EBM7); experiment: Immunohistochemistry, TH: dopaminergic neuron formation from in vitro-derived neurectoderm (EBM7); format: cell-based; details: EBM7s, 10 ng/ml NGF days 7-10, 200 μM dopamine days 10-14 where present, day 14
Description: FIG. 2: The culture of in vitro-derived neurectoderm in the presence of NGF and dopamine increases dopaminergic neuron formation. EBM^7s were seeded for 3 days in 50% DMEM/F12, 10 ng/ml FGF2, 0.1% ITSS, 1% FCS, and 10 ng/ml NGF, and for an additional 4 days in DMEM/F12, 0.1% ITSS, 200 μM ascorbic acid, with or without 200 μM dopamine. The resulting EBMs were analysed by immunohistochemistry using an anti-TH antibody. Positive staining for TH (dark regions) indicated dopaminergic neurons. A, EBM^7s cultured in the absence of NGF and dopamine; B, EBM^7s cultured in the presence of NGF; C, EBM^7s cultured in the presence of NGF and dopamine.
(§1) EBs were grown in the presence of the conditioned medium MEDII for 7 days (EBM^7) as previously described in International Patent Application PCT/AU99/00265 to applicants, the entire disclosure of which is incorporated herein by reference.
(§2) ES cells were seeded at a density of 1×10^5 cells/cm^2 In suspension culture in bacterial petri dishes in DMEM containing 50% MEDII. DMEM is defined as Dulbecco's Modified Eagles Medium (Gibco BRL), pH 7.4, containing high glucose and supplemented with 10% foetal calf serum (FCS; Commonwealth Serum Laboratories), 40 μg/ml gentamycin, 1 mM L-glutamine, 0.1 mM β-mercaptoethanol (β-ME). […]
(§3) Antibody staining for NF200 and tyrosine hydroxylase (TH) was detected by alkaline phoaphatase activity. […]

[2] = tested on: in vitro-derived neurectoderm (EBM7); experiment: Immunohistochemistry, NF200: neuron formation from in vitro-derived neurectoderm (EBM7); format: cell-based; details: EBM7s grown in the presence of 10 ng/ml NGF vs absence; anti-NF200 antibody, day 14
Description: FIG. 1: The culture of in vitro-derived neurectoderm in the presence of NGF increases neuron formation. EBM^7s were seeded for 3 days in 50% DMEM/F12, 10 ng/ml FGF2, 0.1% ITSS, 1% FCS, in the presence or absence of 10 ng/ml NGF, and for an additional 4 days in 50% DMEM/F12, 0.1% ITSS. The resulting EBMs were analysed by immunohistochemistry using an anti-NF200 antibody. Positive staining for NF200 (dark regions) indicated neurons. A, EBM^7s cultured in the absence of NGF; B, EBM^7s cultured in the presence of NGF.
as §1
as §2, with “(β-ME). The resulting cell aggregates (EBMs) were split 1:2 after 2 days and seeded into fresh DMEM containing 50% MEDII.” for “(β-ME).”
as §3

Row | Compound | TH positive cells (anti-TH antibody staining) [1] | proportion of cells staining positive for NF200 [2]
1 | NCCc1ccc(O)c(O)c1 [dopamine, reference compound] | significant increase | 
2 | NGF: growth factor from the neural growth factor (NGF) family, used at 10 ng/ml | only a small proportion | significantly increased
